What was measured:
[1] = biological target: interaction between PD-1 and PD-L1 (Homo sapiens, UniProt Q9NZQ7); experiment: PD-1/PD-L1 protein-protein interaction assay (ALPHA); type: binding; conditions: 2 nM His-tagged human PD-L1, 0.6 nM PD-1-Fc, AlphaScreen
PD-1/PD-L1 interaction = biological target: T1, PD-1/PD-L1 interaction (Homo sapiens, UniProt Q9NZQ7); experiment: PD-1/PD-L1 blockage cell-based bioassay (Jurkat NFAT luciferase / CHO-PDL1 co-culture); conditions: Jurkat NFAT cells co-cultured with CHO-PDL1 cells, 6 h, luminescence
T1 construct: expressed in transfected cells
T1 sequence (Q9NZQ7 19-290): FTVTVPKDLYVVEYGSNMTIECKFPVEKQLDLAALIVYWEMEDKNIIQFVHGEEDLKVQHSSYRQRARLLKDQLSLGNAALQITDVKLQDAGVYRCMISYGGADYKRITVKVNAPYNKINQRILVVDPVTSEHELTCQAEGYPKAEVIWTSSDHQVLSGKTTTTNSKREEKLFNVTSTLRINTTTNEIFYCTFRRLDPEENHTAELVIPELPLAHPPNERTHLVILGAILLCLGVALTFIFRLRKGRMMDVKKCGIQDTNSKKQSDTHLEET

interaction between PD-1 and PD-L1, sequence (Q9NZQ7 19-238 limits assumed): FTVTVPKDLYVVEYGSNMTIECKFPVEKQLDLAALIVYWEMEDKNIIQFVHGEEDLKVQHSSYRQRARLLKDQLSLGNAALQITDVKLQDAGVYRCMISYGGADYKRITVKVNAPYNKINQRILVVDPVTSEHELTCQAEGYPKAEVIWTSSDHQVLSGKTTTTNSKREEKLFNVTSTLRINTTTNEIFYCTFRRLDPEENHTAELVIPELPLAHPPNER

Compound	IC50 [1] [µM]	IC50 (PD-1/PD-L1 interaction) [µM]
COc1cc(-n2ncc3c(-c4cccc(-c5ccc(CN6CC7(CNC(=O)C7)C6)c(OC)n5)c4Cl)cccc32)cc(OC)c1CN1CC(C(C)(C)O)C1 [Example 137, 2-((6-(2-chloro-3-(1-(4-((3-(2-hydroxypropan-2-yl)azetidin-1-yl)methyl)-3,5-dimethoxyphenyl)-1H-indazol-4-yl)phenyl)-2-methoxypyridin-3-yl)methyl)-2,6-diazaspiro[3.4]octan-7-one]	< 0.001	0.201 to 2
COc1cc(-n2ncc3c(-c4cccc(-c5ccc(CN[C@H]6C[C@@H](O)C6)c(OC)n5)c4Cl)cccc32)ncc1CN[C@H]1C[C@@H](O)C1 [Example 106, cis-3-(((6-(2-chloro-3-(1-(5-(((cis-3-hydroxycyclobutyl)amino)methyl)-4-methoxypyridin-2-yl)-1H-indazol-4-yl)phenyl)-2-methoxypyridin-3-yl)methyl)amino)cyclobutanol]	< 0.001	0.201 to 2
COc1cc(-n2ncc3c(-c4cccc(-c5nc6cc(CN(C)C78CCC(C(=O)O)(CC7)CC8)cc(C#N)c6o5)c4C)cccc32)cc(OC)c1CN1CC(O)C1 [Example 159, 4-(((7-cyano-2-(3-(1-(4-((3-hydroxyazetidin-1-yl)methyl)-3,5-dimethoxyphenyl)-1H-indazol-4-yl)-2-methylphenyl)benzo[d]oxazol-5-yl)methyl)(methyl)amino)bicyclo[2.2.2]octane-1-carboxylic acid]	< 0.001	< 0.2
COc1cc(-n2ncc3c(-c4cccc(-c5ccc(CN[C@H]6C[C@@H](O)C6)c(OC)n5)c4Cl)cccc32)cc(OC)c1CN1CC(C)(C(=O)NC2CC2)C1 [Example 100, 1-(4-(4-(2-chloro-3-(5-(((cis-3-hydroxycyclobutyl)amino)methyl)-6-methoxypyridin-2-yl)phenyl)-1H-indazol-1-yl)-2,6-dimethoxybenzyl)-N-cyclopropyl-3-methylazetidine-3-carboxamide]	< 0.001	< 0.2
COc1cc(-n2ncc3c(-c4cccc(-c5ccc(CN6CC7(CNC(=O)C7)C6)c(OC)n5)c4Cl)cccc32)cc(OC)c1CN1CC(C(=O)O)C1 [Example 150, 1-(4-(4-(2-chloro-3-(6-methoxy-5-((7-oxo-2,6-diazaspiro[3.4]octan-2-yl)methyl)pyridin-2-yl)phenyl)-1H-indazol-1-yl)-2,6-dimethoxybenzyl)azetidine-3-carboxylic acid]	< 0.001	< 0.2
COc1cc(-n2ncc3c(-c4cccc(-c5ccc(CN6CC(C(C)(C)O)C6)c(OC)n5)c4Cl)cccc32)ncc1CNCCO [Example 142, 2-(1-((6-(2-chloro-3-(1-(5-(((2-hydroxyethyl)amino)methyl)-4-methoxypyridin-2-yl)-1H-indazol-4-yl)phenyl)-2-methoxypyridin-3-yl)methyl)azetidin-3-yl)propan-2-ol]	< 0.001	< 0.2
COc1cc(-n2ncc3c(-c4cccc(-c5nc6cc(CN7CC[C@@H](C(=O)O)C7)cc(C#N)c6o5)c4C)cccc32)cc(OC)c1CN1CC[C@@H](O)C1 [Example 154, (R)-1-((7-cyano-2-(3-(1-(4-(((R)-3-hydroxypyrrolidin-1-yl)methyl)-3,5-dimethoxyphenyl)-1H-indazol-4-yl)-2-methylphenyl)benzo[d]oxazol-5-yl)methyl)pyrrolidine-3-carboxylic acid]	< 0.001	< 0.2
COc1cc(-n2ncc3c(-c4cccc(-c5ccc(CN[C@H]6C[C@@H](O)C6)c(OC)n5)c4Cl)cccc32)ncc1CN[C@@H](CO)C(N)=O [Example 118, (S)-2-(((6-(4-(2-chloro-3-(5-(((cis-3-hydroxycyclobutyl)amino)methyl)-6-methoxypyridin-2-yl)phenyl)-1H-indazol-1-yl)-4-methoxypyridin-3-yl)methyl)amino)-3-hydroxypropanamide]	< 0.001	> 2
COc1cc(-n2ncc3c(-c4cccc(-c5ccc(CN6CC7(CNC(=O)C7)C6)c(OC)n5)c4Cl)cccc32)ncc1CN[C@H]1C[C@@H](O)C1 [Example 111, 2-((6-(2-chloro-3-(1-(5-(((cis-3-hydroxycyclobutyl)amino)methyl)-4-methoxypyridin-2-yl)-1H-indazol-4-yl)phenyl)-2-methoxypyridin-3-yl)methyl)-2,6-diazaspiro[3.4]octan-7-one]	< 0.001	0.201 to 2
COc1cc(N2CCc3c(-c4cccc(-c5nc6c(s5)CNCC6)c4C)cccc32)cc(OC)c1CNC[C@@H]1CCC(=O)N1 [Example 85, (S)-5-(((2,6-dimethoxy-4-(4-(2-methyl-3-(4,5,6,7-tetrahydrothiazolo[5,4-c]pyridin-2-yl)phenyl)indolin-1-yl)benzyl)amino)methyl)pyrrolidin-2-one]	0.01 to 0.1	> 2
COc1cc(-n2ncc3c(-c4cccc(-c5ccc(CNC[C@@H]6CCC(=O)N6)c(OC)n5)c4Cl)cccc32)cc(OC)c1CN1CC(C)(C(=O)NC2CC2)C1 [Example 88, (S)-1-(4-(4-(2-chloro-3-(6-methoxy-5-((((5-oxopyrrolidin-2-yl)methyl)amino)methyl)pyridin-2-yl)phenyl)-1H-indazol-1-yl)-2,6-dimethoxybenzyl)-N-cyclopropyl-3-methylazetidine-3-carboxamide]	0.001 to 0.01	0.201 to 2

The next lines start with the values.

IC50 [1] [µM]	IC50 (PD-1/PD-L1 interaction) [µM]	Compound
0.001 to 0.01	0.201 to 2	COc1cc(-n2ccc3c(-c4cccc(-c5ccc(CNC[C@H]6C[C@@H](O)C6)c(OC)n5)c4Cl)cccc32)cc(OC)c1CNC[C@@H]1CCC(=O)N1 [Example 82, (S)-5-(((4-(4-(2-chloro-3-(5-((((cis-3-hydroxycyclobutyl)methyl)amino)methyl)-6-methoxypyridin-2-yl)phenyl)-1H-indol-1-yl)-2,6-dimethoxybenzyl)amino)methyl)pyrrolidin-2-one]
< 0.001	< 0.2	COc1cc(-n2ncc3c(-c4cccc(-c5ccc(CN6CC7(CNC(=O)C7)C6)c(OC)n5)c4Cl)cccc32)cc(OC)c1CN[C@@](C)(CO)C(=O)O [Example 139, (S)-2-((4-(4-(2-chloro-3-(6-methoxy-5-((7-oxo-2,6-diazaspiro[3.4]octan-2-yl)methyl)pyridin-2-yl)phenyl)-1H-indazol-1-yl)-2,6-dimethoxybenzyl)amino)-3-hydroxy-2-methylpropanoic acid]
0.01 to 0.1	> 2	COC(=O)C1CC[C@H](NCc2ccc(-c3cccc(-c4cccc5c4ccn5-c4cc(OC)c(CNC[C@@H]5CCC(=O)N5)c(OC)c4)c3Cl)nc2OC)C1 (some centres unmarked) [Example 50]
< 0.001	< 0.2	COc1cc(-n2ncc3c(-c4cccc(-c5ccc(CNC[C@@H]6CCC(=O)N6)c(OC)n5)c4Cl)cccc32)cc(OC)c1CN1CC[C@@H](C(=O)O)C1 [Example 117, (R)-1-(4-(4-(2-chloro-3-(6-methoxy-5-(((((S)-5-oxopyrrolidin-2-yl)methyl)amino)methyl)pyridin-2-yl)phenyl)-1H-indazol-1-yl)-2,6-dimethoxybenzyl)pyrrolidine-3-carboxylic acid]
0.001 to 0.01	0.201 to 2	COc1cc(-n2ncc3c(-c4cccc(-c5ccc(CN6CC7(CNC(=O)C7)C6)c(OC)n5)c4Cl)cccc32)cc(OC)c1CNC[C@H]1C[C@@H](O)C1 [Example 91, 2-((6-(2-chloro-3-(1-(4-(((((cis)-3-hydroxycyclobutyl)methyl)amino)methyl)-3,5-dimethoxyphenyl)-1H-indazol-4-yl)phenyl)-2-methoxypyridin-3-yl)methyl)-2,6-diazaspiro[3.4]octan-7-one]
< 0.001	< 0.2	COc1cc(-n2ncc3c(-c4cccc(-c5ccc(CN6CC7(CNC(=O)C7)C6)c(OC)n5)c4Cl)cccc32)cc(OC)c1CNCCO [Example 128, 2-((6-(2-chloro-3-(1-(4-(((2-hydroxyethyl)amino)methyl)-3,5-dimethoxyphenyl)-1H-indazol-4-yl)phenyl)-2-methoxypyridin-3-yl)methyl)-2,6-diazaspiro[3.4]octan-7-one]
0.001 to 0.01	0.201 to 2	COc1cc(-n2ccc3c(-c4cccc(-c5ccc(CN6CC7(CNC(=O)C7)C6)c(OC)n5)c4Cl)cccc32)cc(OC)c1CNC[C@@H]1CCC(=O)N1 [Example 96, (S)-2-((6-(2-chloro-3-(1-(3,5-dimethoxy-4-((((5-oxopyrrolidin-2-yl)methyl)amino)methyl)phenyl)-1H-indol-4-yl)phenyl)-2-methoxypyridin-3-yl)methyl)-2,6-diazaspiro[3.4]octan-7-one]
< 0.001	< 0.2	COc1cc(-n2ncc3c(-c4cccc(-c5ccc(CN[C@H]6C[C@@H](O)C6)c(OC)n5)c4Cl)cccc32)cc(OC)c1CNCCO [Example 125, cis-3-(((6-(2-chloro-3-(1-(4-(((2-hydroxyethyl)amino)methyl)-3,5-dimethoxyphenyl)-1H-indazol-4-yl)phenyl)-2-methoxypyridin-3-yl)methyl)amino)cyclobutanol]
< 0.001	< 0.2	COc1cc(-n2ncc3c(-c4cccc(-c5ccc(CN6CC7(CNC(=O)C7)C6)c(OC)n5)c4Cl)cccc32)cc(OC)c1CNC[C@@H](C)O [Example 112, (R)-2-((6-(2-chloro-3-(1-(4-(((2-hydroxypropyl)amino)methyl)-3,5-dimethoxyphenyl)-1H-indazol-4-yl)phenyl)-2-methoxypyridin-3-yl)methyl)-2,6-diazaspiro[3.4]octan-7-one]
< 0.001	< 0.2	COc1cc(-n2ncc3c(-c4cccc(-c5ccc(CN[C@H]6C[C@@H](O)C6)c(OC)n5)c4Cl)cccc32)cc(OC)c1CN[C@H](CO)C(=O)O [Example 126, (4-(4-(2-chloro-3-(5-(((cis-3-hydroxycyclobutyl)amino)methyl)-6-methoxypyridin-2-yl)phenyl)-1H-indazol-1-yl)-2,6-dimethoxybenzyl)-D-serine]
0.01 to 0.1	> 2	COc1cc(-n2ccc3c(-c4ccc5c(c4)OCCO5)cccc32)cc(OC)c1CNC(C)(CO)C(=O)O (centres unmarked) [Example 1, 2-((4-(4-(2,3-dihydrobenzo[b][1,4]dioxin-6-yl)-1H-indol-1-yl)-2,6-dimethoxybenzyl)amino)-3-hydroxy-2-methylpropanoic acid]
